Measurements published in paper PMC10648598, “Physiologic and Transcriptomic Effects Triggered by Overexpression of Wild Type and Mutant DNA Topoisomerase I in Streptococcus pneumoniae” (International Journal of Molecular Sciences, 2023).

Target: T1, TopoI (TopoIWT) (Streptococcus pneumoniae, UniProt Q8DPI9)
T1 construct: gene topA
Test: biochemical

T1 sequence (Q8DPI9 1-701): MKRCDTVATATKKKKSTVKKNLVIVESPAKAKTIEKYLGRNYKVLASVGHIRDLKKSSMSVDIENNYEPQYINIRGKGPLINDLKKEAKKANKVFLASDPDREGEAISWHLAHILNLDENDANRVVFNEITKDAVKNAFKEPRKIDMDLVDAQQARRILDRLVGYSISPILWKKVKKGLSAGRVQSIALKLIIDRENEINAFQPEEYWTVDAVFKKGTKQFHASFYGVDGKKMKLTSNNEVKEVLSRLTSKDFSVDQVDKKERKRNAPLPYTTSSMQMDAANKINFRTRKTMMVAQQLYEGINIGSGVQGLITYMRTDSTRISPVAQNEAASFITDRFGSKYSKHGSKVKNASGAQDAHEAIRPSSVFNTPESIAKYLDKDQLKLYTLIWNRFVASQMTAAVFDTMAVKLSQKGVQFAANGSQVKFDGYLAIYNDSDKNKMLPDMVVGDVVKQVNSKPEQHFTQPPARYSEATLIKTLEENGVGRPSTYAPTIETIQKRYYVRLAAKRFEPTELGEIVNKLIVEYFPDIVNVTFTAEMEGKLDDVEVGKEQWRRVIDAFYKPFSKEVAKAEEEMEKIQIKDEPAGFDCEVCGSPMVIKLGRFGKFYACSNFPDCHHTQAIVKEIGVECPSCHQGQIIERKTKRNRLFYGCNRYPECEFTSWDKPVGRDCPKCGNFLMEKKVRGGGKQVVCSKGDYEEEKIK

CNCCc1cc2c(c3c1ccc1cc4c(cc13)OCO4)OCO2 [SCN, Seconeolitsine]
IC50: 6.8 ± 2 µM
